# In patent publication US11918568B2, “Fused ring compound having urea structure” (DAIICHI SANKYO COMPANY, LIMITED, priority 2018, dated 2024):
# Biological target: human NAMPT enzyme (Homo sapiens (Human), UniProt P43490)
# Experiment: NAMPT enzyme activating effect (in vitro cell-free enzyme assay)
# Assay type: biochemical
# Details: 2 ng/mL human NAMPT enzyme, 1-h incubation at 25° C., fluorescence of NMN derivative
# Protocol: The NAMPT enzyme assay was conducted in accordance with the method of Formentini et al. […] Hereinafter, the procedures will be briefly described. The NAMPT enzyme reaction was carried out using polypropylene 384 well V shaped black plate (Greiner Bio One International GmbH). […] Then, 22 μL of 88% formic acid was added and the mixture was further incubated for 30 min in the dark. The NAMPT enzyme activity was calculated as the difference between fluorescence intensity (Ex 380 nm/Em 450 nm) from the reaction of a test compound treatment group and fluorescence intensity from control reaction free from the NAMPT enzyme. [NAMPT enzyme activity]=[Fluorescence intensity of the test substance treatment group]−[Mean fluorescence intensity of the control reaction free from the NAMPT enzyme] EC50 value of each compound was calculated from the enzyme activities of the compound at various concentrations by using GraphPad Prism software (GraphPad Software) (Table 1)
# Sequence of human NAMPT enzyme (P43490 whole entry): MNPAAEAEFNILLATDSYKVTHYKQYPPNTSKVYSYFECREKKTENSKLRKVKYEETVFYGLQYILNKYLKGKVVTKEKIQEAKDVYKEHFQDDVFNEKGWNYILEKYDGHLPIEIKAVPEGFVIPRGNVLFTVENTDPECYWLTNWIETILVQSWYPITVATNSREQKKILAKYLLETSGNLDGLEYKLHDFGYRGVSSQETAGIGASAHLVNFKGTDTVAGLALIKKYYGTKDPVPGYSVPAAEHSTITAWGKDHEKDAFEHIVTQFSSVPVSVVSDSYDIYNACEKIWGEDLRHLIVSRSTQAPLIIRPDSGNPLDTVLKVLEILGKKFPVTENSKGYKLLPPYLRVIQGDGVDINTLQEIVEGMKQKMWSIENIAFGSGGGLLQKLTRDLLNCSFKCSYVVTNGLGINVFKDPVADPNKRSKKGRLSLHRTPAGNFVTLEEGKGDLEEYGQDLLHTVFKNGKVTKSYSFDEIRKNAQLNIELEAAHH
row,SMILES,EC50 [µM]
1,"COc1cccc([C@H]2Oc3cc(NC(=O)NCc4ccncc4)ccc3[C@@H]2C)c1 (relative stereo) [Example 53, N-[(2S*,3S*)-2-(3-Methoxyphenyl)-3-methyl-2,3-dihydro-1-benzofuran-6-yl]-N′-[(pyridin-4-yl)methyl]urea]",0.08
2,"CN(C)C(=O)c1c(-c2ccccc2)nn2cc(NC(=O)NCc3ccncc3)cc(F)c12 [Example 20, 4-Fluoro-N,N-dimethyl-2-phenyl-6-({[(pyridin-4-yl)methyl]carbamoyl}amino)pyrazolo[1,5-a]pyridine-3-carboxamide]",0.16
3,"COCCOc1ccccc1-n1cc2ccc(NC(=O)NCc3ccncc3)cc2n1 [Example 29, N-{2-[2-(2-Methoxyethoxy)phenyl]-2H-indazol-6-yl}-N′-[(pyridin-4-yl)methyl]urea]",0.06
4,"COC(=O)Cn1c(-c2ccccc2)cc2cc(NC(=O)NCc3ccncc3)ccc21 [Example 35, Methyl [2-phenyl-5-({[(pyridin-4-yl)methyl]carbamoyl}amino)-1H-indol-1-yl]acetate]",0.56
5,"CN(C)C(=O)n1c(-c2ccccc2)cc2cc(NC(=O)NCc3ccncc3)ccc21 [Example 41, N,N-Dimethyl-2-phenyl-5-({[(pyridin-4-yl)methyl]carbamoyl}amino)-1H-indole-1-carboxamide]",0.29
6,"N#Cc1c(-c2ccccc2)nn2cc(NC(=O)NCc3ccncc3)ccc12 [Example 24, N-(3-Cyano-2-phenylpyrazolo[1,5-a]pyridin-6-yl)-N′-[(pyridin-4-yl)methyl]urea]",0.05
7,"CCCCc1ccccc1-c1nc2ccc(NC(=O)NCc3ccncc3)cn2n1 [Example 11, N-[2-(2-Butylphenyl)[1,2,4]triazolo[1,5-a]pyridin-6-yl]-N′-[(pyridin-4-yl)methyl]urea]",0.02
8,"COCCOc1cccc(-c2cc3cc(NC(=O)NCc4ccncc4)ccc3n2C)c1 [Example 37, N-{2-[3-(2-Methoxyethoxy)phenyl]-1-methyl-1H-indol-5-yl}-N′-[(pyridin-4-yl)methyl]urea]",0.16
9,"CCN(Cc1ccccc1)C(=O)c1noc2cc(NC(=O)NCc3ccncc3)ccc12 [Example 56, N-Benzyl-N-ethyl-6-({[(pyridin-4-yl)methyl]carbamoyl}amino)-1,2-benzoxazole-3-carboxamide]",0.03
10,"O=C(NCc1ccncc1)Nc1ccc2cn(-c3ccccc3)nc2c1 [Example 26, N-(2-Phenyl-2H-indazol-6-yl)-N′-[(pyridin-4-yl)methyl]urea]",0.04
11,"Cc1c(-c2ccccc2)nn2cc(NC(=O)NCc3ccncc3)ccc12 [Example 25, N-(3-Methyl-2-phenylpyrazolo[1,5-a]pyridin-6-yl)-N′-[(pyridin-4-yl)methyl]urea]",0.07
12,"O=C(NCc1ccncc1)Nc1ccc2c(c1)cc(-c1ccccc1)n2CC1COCCO1 (stereo not shown) [Example 40, N-{1-[(1,4-Dioxan-2-yl)methyl]-2-phenyl-1H-indol-5-yl}-N′-[(pyridin-4-yl)methyl]urea]",0.19
13,"O=C(NCc1ccncc1)Nc1ccc2nc(-c3cccn3-c3ccccc3)nn2c1 [Example 12, N-[2-(1-Phenyl-1H-pyrrol-2-yl)[1,2,4]triazolo[1,5-a]pyridin-6-yl]-N′-[(pyridin-4-yl)methyl]urea]",0.23
14,"COCCn1c(-c2ccccc2)cc2cc(NC(=O)NCc3ccncc3)ccc21 [Example 36, N-[1-(2-Methoxyethyl)-2-phenyl-1H-indol-5-yl]-N′-[(pyridin-4-yl)methyl]urea]",0.13
15,"O=C(NCc1cnco1)Nc1ccc2nc(-c3ccccc3)oc2c1 [Example 5, N-[(1,3-Oxazol-5-yl)methyl]-N′-(2-phenyl-1,3-benzoxazol-6-yl)urea]",0.11
16,"COc1cccc(-c2cc3ccc(NC(=O)NCc4ccncc4)cn3n2)c1 [Example 45, N-[2-(3-Methoxyphenyl)pyrazolo[1,5-a]pyridin-6-yl]-N′-[(pyridin-4-yl)methyl]urea]",0.06
17,"CC1(c2nc3ccc(NC(=O)NCc4ccncc4)cc3o2)CC1 [Example 3, N-[2-(1-Methylcyclopropyl)-1,3-benzoxazol-6-yl]-N′-[(pyridin-4-yl)methyl]urea]",0.15
18,"Cn1c(-c2ccccc2)cc2cc(NC(=O)NCc3ccncc3)ccc21 [Example 42, N-(1-Methyl-2-phenyl-1H-indol-5-yl)-N′-[(pyridin-4-yl)methyl]urea]",0.1
19,"O=C(NCc1ccncc1)Nc1ccc2c(C(=O)N3CC4CCC(C3)O4)noc2c1 [Example 57, N-[3-(8-Oxa-3-azabicyclo[3.2.1]octane-3-carbonyl)-1,2-benzoxazol-6-yl]-N′-[(pyridin-4-yl)methyl]urea]",0.19
20,"O=C(NCc1ccncc1)Nc1ccc2c(c1)OC(c1ccccc1)C2 (stereo not shown) [Example 51, N-(2-Phenyl-2,3-dihydro-1-benzofuran-6-yl)-N′-[(pyridin-4-yl)methyl]urea]",0.12

row,SMILES,EC50 [µM]
1,"O=C(NCc1cnco1)Nc1ccc2cn(-c3ccccc3)nc2c1 [Example 43, N-[(1,3-Oxazol-5-yl)methyl]-N′-(2-phenyl-2H-indazol-6-yl)urea]",0.14
2,"CCN(CC)C(=O)c1c2ccc(NC(=O)NCc3ccncc3)cc2nn1-c1ccccc1 [Example 18, N,N-Diethyl-2-phenyl-6-({[(pyridin-4-yl)methyl]carbamoyl}amino)-2H-indazole-3-carboxamide]",0.05
3,"O=C(NCc1ccncc1)Nc1ccc2cn(-c3cccc(OC(F)F)c3)nc2c1 [Example 44, N-{2-[3-(Difluoromethoxy)phenyl]-2H-indazol-6-yl}-N′-[(pyridin-4-yl)methyl]urea]",0.11
4,"O=C(NCc1cnco1)Nc1ccc2nc(-c3ccccc3)nn2c1 [Example 10, N-[(1,3-Oxazol-5-yl)methyl]-N′-(2-phenyl[1,2,4]triazolo[1,5-a]pyridin-6-yl) urea]",0.14
5,"O=C(NCc1ccncc1)Nc1cnc2cc(-c3ccccc3)nn2c1 [Example 31, N-(2-Phenylpyrazolo[1,5-a]pyrimidin-6-yl)-N′-[(pyridin-4-yl)methyl]urea]",0.43
6,"CCN(CC)C(=O)c1coc2cc(NC(=O)NCc3ccncc3)ccc12 [Example 55, N,N-Diethyl-6-({[(pyridin-4-yl)methyl]carbamoyl}amino)-1-benzofuran-3-carboxamide]",0.49
7,"O=C(NCc1ccncc1)Nc1ccc2c(c1)OCC2c1ccccc1 (stereo not shown) [Example 54, N-(3-Phenyl-2,3-dihydro-1-benzofuran-6-yl)-N′-[(pyridin-4-yl)methyl]urea]",0.27
8,"CC(C)Cn1ncc2cc(NC(=O)NCc3ccncc3)ccc21 [Example 46, N-[1-(2-Methylpropyl)-1H-indazol-5-yl]-N′-[(pyridin-4-yl)methyl]urea]",0.79
9,"COc1cccc(-n2cc3ccc(NC(=O)NCc4ccncc4)cc3n2)c1 [Example 30, N-[2-(3-Methoxyphenyl)-2H-indazol-6-yl]-N′-[(pyridin-4-yl)methyl]urea]",0.01
10,"COCCN1CC(c2ccccc2)Oc2cc(NC(=O)NCc3ccncc3)ccc21 (stereo not shown) [Example 48, N-[4-(2-Methoxyethyl)-2-phenyl-3,4-dihydro-2H-1,4-benzoxazin-7-yl]-N′-[(pyridin-4-yl)methyl]urea]",0.65
11,"CN(C)C(=O)c1c(-c2ccccc2)nn2cc(NC(=O)NCc3ccncc3)ccc12 [Example 23, N,N-Dimethyl-2-phenyl-6-({[(pyridin-4-yl)methyl]carbamoyl}amino)pyrazolo[1,5-a]pyridine-3-carboxamide]",0.11
12,"CCNC(=O)N1CC(c2ccccc2Cl)Oc2cc(NC(=O)NCc3ccncc3)ccc21 (stereo not shown) [Example 49, 2-(2-Chlorophenyl)-N-ethyl-7-({[(pyridin-4-yl)methyl]carbamoyl}amino)-2,3-dihydro-4H-1,4-benzoxazine-4-carboxamide]",0.13
13,"Cc1c2ccc(NC(=O)NCc3ccncc3)cc2nn1-c1ccccc1 [Example 28, N-(3-Methyl-2-phenyl-2H-indazol-6-yl)-N′-[(pyridin-4-yl)methyl]urea]",1
14,"O=C(NCc1ccncc1)Nc1ccc2nc(-c3ccccc3C(F)(F)F)nn2c1 [Example 14, N-[(Pyridin-4-yl)methyl]-N′-{2-[2-(trifluoromethyl)phenyl][1,2,4]triazolo[1,5-a]pyridin-6-yl}urea]",0.18
15,"COc1cc(-n2nc3cc(NC(=O)NCc4ccncc4)ccc3c2C#N)ccn1 [Example 33, N-[3-Cyano-2-(2-methoxypyridin-4-yl)-2H-indazol-6-yl]-N′-[(pyridin-4-yl)methyl]urea]",0.13
16,"Cn1c(-c2ccccn2)cc2cc(NC(=O)NCc3ccncc3)ccc21 [Example 39, N-[1-Methyl-2-(pyridin-2-yl)-1H-indol-5-yl]-N′-[(pyridin-4-yl)methyl]urea]",0.53
17,"Cn1c(-c2cccc(S(C)(=O)=O)c2)cc2cc(NC(=O)NCc3ccncc3)ccc21 [Example 38, N-{2-[3-(Methanesulfonyl)phenyl]-1-methyl-1H-indol-5-yl}-N′-[(pyridin-4-yl)methyl]urea]",0.62
18,"CCC(=O)N1CC(c2ccccc2)COc2cc(NC(=O)NCc3ccncc3)ccc21 (stereo not shown) [Example 19, N-(3-Phenyl-5-propanoyl-2,3,4,5-tetrahydro-1,5-benzoxazepin-8-yl)-N′-[(pyridin-4-yl)methyl]urea]",0.38
19,"CC(=O)N1c2ccc(NC(=O)NCc3ccncc3)cc2CC1c1ccccc1 (stereo not shown) [Example 34, N-(1-Acetyl-2-phenyl-2,3-dihydro-1H-indol-5-yl)-N′-[(pyridin-4-yl)methyl]urea]",0.18
20,"O=C(NCc1ccncc1)Nc1cc2oc(-c3ccccc3)nc2cc1F [Example 6, N-(5-Fluoro-2-phenyl-1,3-benzoxazol-6-yl)-N′-[(pyridin-4-yl)methyl]urea]",0.01
